Source: the supplement of paper PMC10307832

Assays:
Assay in all cases: relative viability (nuclei count vs DMSO), 5 days (fraction); higher = more cells survive
[1] = compound: CC1=NN=C(O1)C2=NN=C(C=C2)N3CCC(CC3)OC4=C(C=CC(=C4)F)Cl + N=C(N)NC(=N)NCCc1ccccc1 [Phenformin] (partner 250 µM)
Outline: (§1)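 Lung cancer cell lines were pin-tool dosed in 1536-well plates on the day after seeding, with either a lone drug or a fixed anchor-drug dose plus five library-drug doses (not always all listed) in √10 steps. Nuclei were counted on 4× images after 5 days. Relative viability is the ratio of treated-well to vehicle-well nuclei counts, with each value a median of duplicate plates.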

Tosedostat + Tozasertib = compound: CC(C)C[C@@H](C(=O)N[C@H](C(=O)OC1CCCC1)c1ccccc1)[C@H](O)C(=O)NO [Tosedostat] + Cc1cc(Nc2cc(N3CCN(C)CC3)nc(Sc3ccc(NC(=O)C4CC4)cc3)n2)n[nH]1 [Tozasertib] (partner 0.1 µM)
Outline: as §1

Tosedostat + Pemetrexed = compound: CC(C)C[C@@H](C(=O)N[C@H](C(=O)OC1CCCC1)c1ccccc1)[C@H](O)C(=O)NO [Tosedostat] + Nc1nc2[nH]cc(CCc3ccc(C(=O)N[C@@H](CCC(=O)O)C(=O)O)cc3)c2c(=O)[nH]1 [Pemetrexed] (partner 0.2 µM)
Outline: as §1

Tosedostat + AZD7762 = compound: CC(C)C[C@@H](C(=O)N[C@H](C(=O)OC1CCCC1)c1ccccc1)[C@H](O)C(=O)NO [Tosedostat] + NC(=O)Nc1cc(-c2cccc(F)c2)sc1C(=O)N[C@H]1CCCNC1 [AZD7762] (partner 0.2 µM)
Outline: as §1

| Cell Line | relative viability ([1]; first compound 0.253 µM) | relative viability ([1]; first compound 0.8 µM) | relative viability ([1]; first compound 2.53 µM) | relative viability ([1]; first compound 8 µM) | relative viability (Tosedostat + Tozasertib; first compound 0.02 µM) | relative viability (Tosedostat + Tozasertib; first compound 0.06325 µM) | relative viability (Tosedostat + Tozasertib; first compound 0.2 µM) | relative viability (Tosedostat + Tozasertib; first compound 0.6325 µM) | relative viability (Tosedostat + Tozasertib; first compound 2 µM) | relative viability (Tosedostat + Pemetrexed; first compound 0.02 µM) | relative viability (Tosedostat + Pemetrexed; first compound 0.06325 µM) | relative viability (Tosedostat + Pemetrexed; first compound 0.2 µM) | relative viability (Tosedostat + Pemetrexed; first compound 0.6325 µM) | relative viability (Tosedostat + Pemetrexed; first compound 2 µM) | relative viability (Tosedostat + AZD7762; first compound 0.02 µM) | relative viability (Tosedostat + AZD7762; first compound 0.06325 µM) | relative viability (Tosedostat + AZD7762; first compound 0.2 µM) | relative viability (Tosedostat + AZD7762; first compound 0.6325 µM) | relative viability (Tosedostat + AZD7762; first compound 2 µM) |
| --- | --- | --- | --- | --- | --- | --- | --- | --- | --- | --- | --- | --- | --- | --- | --- | --- | --- | --- | --- |
| HCC-827 | 0.388 | 0.258 | 0.354 | 0.36 | 0.416 | 0.412 | 0.445 | 0.357 | 0.426 | 0.24 | 0.265 | 0.255 | 0.318 | 0.353 | 0.201 | 0.257 | 0.347 | 0.176 | 0.178 |
| HOP-62 | 0.592 | 0.352 | 0.411 | 0.349 | 0.393 | 0.31 | 0.329 | 0.323 | 0.152 | 0.34 | 0.328 | 0.38 | 0.431 | 0.472 | 0.56 | 0.556 | 0.753 | 0.345 | 0.379 |
| LC-2-ad | 0.496 | 0.489 | 0.51 | 0.472 | 0.472 | 0.454 | 0.403 | 0.297 | 0.281 | 0.299 | 0.303 | 0.289 | 0.277 | 0.251 | 0.929 | 0.85 | 0.873 | 0.8 | 0.918 |
| LCLC-97TM1 | 0.501 | 0.396 | 0.427 | 0.437 | 0.216 | 0.203 | 0.184 | 0.165 | 0.172 | 0.176 | 0.175 | 0.192 | 0.203 | 0.254 | 0.291 | 0.209 | 0.164 | 0.197 | 0.195 |
| LCLC-103H | 0.36 | 0.344 | 0.335 | 0.225 | 0.508 | 0.512 | 0.545 | 0.407 | 0.276 | 0.507 | 0.522 | 0.533 | 0.494 | 0.57 | 0.886 | 0.713 | 0.69 | 0.77 | 0.852 |
| LK-2 | 0.576 | 0.433 | 0.661 | 0.38 | 0.17 | 0.208 | 0.165 | 0.162 | 0.162 | 0.244 | 0.249 | 0.348 | 0.274 | 0.374 | 0.459 | 0.475 | 0.381 | 0.354 | 0.617 |
| LOU-NH91 | 0.64 | 0.598 | 0.69 | 0.679 | 0.686 | 0.699 | 0.665 | 0.574 | 0.917 | 0.394 | 0.478 | 0.447 | 0.487 | 0.444 | 0.805 | 0.862 | 0.802 | 0.745 | 0.624 |
| NCI-H520 | 0.509 | 0.414 | 0.741 | 0.578 | 0.448 | 0.478 | 0.438 | 0.399 | 0.542 | 0.728 | 0.773 | 0.743 | 0.782 | 0.734 | – | – | – | – | – |
| NCI-H661 | 0.282 | 0.308 | 0.244 | 0.277 | 0.354 | 0.353 | 0.374 | 0.395 | 0.342 | 0.959 | 0.9 | 0.97 | 0.984 | 0.994 | – | – | – | – | – |
